Experimental data from patent US20260102359A1, “COMBINATION TREATMENT OF DERMAL AND TRANSDERMAL FIBROTIC DISEASES, DISORDERS AND ASSOCIATED PAIN AND INFLAMMATION” (ERESINA, LLC, priority 2022, published 2026).
Structures can show the parent of a compound that is named as a salt.

System: hDMFa myofibroblast cells

Row | Compound | Compound Myofibroblast Cytotoxicity Activity
1 | O=C(O)c1cn(C2CC2)c2cc(N3CCNCC3)c(F)cc2c1=O [Cmpd 268, Ciprofloxacin (hydrochloride)] | ++
2 | Cyclo(RGDyK) [Cmpd 303] | ++
3 | Cl.N[C@@H]1C[C@H]1c1ccccc1 [Cmpd 964, Tranylcypromine hydrochloride] | ++++
4 | Oc1ccc(O)cc1 [Cmpd 509, Hydroquinone] | ++
5 | O=C(O)CCNC(=O)c1ccccc1 [Cmpd 177, Betamipron] | +++++
6 | O=C(c1ccc(OCCN2CCCCC2)cc1)c1c(-c2ccc(O)cc2)sc2cc(O)ccc12 [Cmpd 819, Raloxifene HCl] | ++++
7 | CC12CCC(CC1=O)C2(C)C (stereo not drawn) [Cmpd 11, (+)-Camphor] | ++
8 | COCCCN1CCC(NC(=O)c2cc(Cl)c(N)c3c2OCC3)CC1 [Cmpd 806, Prucalopride] | +++
9 | Oc1c(Cl)cc(Cl)c(Cl)c1Cc1c(O)c(Cl)cc(Cl)c1Cl [Cmpd 504, Hexachlorophene] | +++++
10 | CCN(CC)CC(=O)Nc1c(C)cccc1C.Cl.O [Cmpd 589, Lidocaine hydrochloride monohydrate] | ++
11 | C[C@H](CCC(=O)NCCS(=O)(=O)[O-])[C@H]1CC[C@H]2[C@@H]3[C@@H](O)C[C@@H]4C[C@H](O)CC[C@]4(C)[C@H]3CC[C@]12C.[Na+] [Cmpd 877, Sodium Tauroursodeoxycholate (TUDC)] | ++
12 | CC(C)(C)NCC(O)COc1cccc2c1CCC(=O)N2 (centres unmarked) [Cmpd 219, Carteolol HCl] | ++
13 | COC(=O)C1=C(C)NC(C)=C(C(=O)OCCN(C)Cc2ccccc2)C1c1cccc([N+](=O)[O-])c1 (centres unmarked) [Cmpd 706, Nicardipine HCl] | +++
14 | COCCc1ccc(OCC(O)CNC(C)C)cc1 (centres unmarked) [Cmpd 665, Metoprolol Tartrate] | ++
15 | COc1ccccc1OCCNCC(O)COc1cccc2[nH]c3ccccc3c12 (centres unmarked) [Cmpd 221, Carvedilol] | +++
16 | Cc1cccc(CN2CCN(C(c3ccccc3)c3ccc(Cl)cc3)CC2)c1.Cl.Cl (centres unmarked) [Cmpd 641, Meclizine 2HCl] | ++
17 | CN(Cc1ccc(C(C)(C)C)cc1)Cc1cccc2ccccc12 [Cmpd 197, Butenafine HCl] | +++
18 | C[C@@H]1C[C@H]2[C@@H]3CCC4=CC(=O)C=C[C@]4(C)[C@@]3(Cl)[C@@H](O)C[C@]2(C)[C@@]1(OC(=O)c1ccco1)C(=O)CCl [Cmpd 688, Mometasone furoate] | ++
19 | CCCCC(=O)O[C@]1(C(=O)CO)[C@@H](C)C[C@H]2[C@@H]3CCC4=CC(=O)C=C[C@]4(C)[C@@]3(F)[C@@H](O)C[C@@]21C [Cmpd 176, Betamethasone Valerate] | ++
20 | Cc1ccccc1C(=O)O [Cmpd 742, o-Toluic acid] | ++
21 | CCOC(=O)C1=C(COCCN)NC(C)=C(C(=O)OC)C1c1ccccc1Cl (centres unmarked) [Cmpd 110, Amlodipine] | +++

Row | Compound | Compound Myofibroblast Cytotoxicity Activity
22 | O=C1NC(=O)[C@@H](c2cn3c4c(cccc24)CCC3)[C@@H]1c1c[nH]c2ccccc12 [Cmpd 950, Tivantinib (ARQ 197)] | ++
23 | CC(=O)CCC(=O)O [Cmpd 583, Levulinic acid] | ++
24 | C=C1/C(=C\C=C2/CCC[C@]3(C)[C@@H]([C@H](C)/C=C/[C@H](C)C(C)C)CC[C@@H]23)C[C@@H](O)C[C@@H]1O [Cmpd 386, Doxercalciferol] | +++
25 | C[C@H]1[C@H](C)CC[C@]2(C(=O)O)CC[C@]3(C)C(=CC[C@@H]4[C@@]5(C)C[C@@H](O)[C@H](O)[C@@](C)(CO)[C@@H]5[C@H](O)C[C@]43C)[C@H]12 [Cmpd 625, Madecassic acid] | +++++
26 | CN(C)[C@@H](CCOc1cccc2ccccc12)c1ccccc1 [Cmpd 322, Dapoxetine HCl] | ++
27 | N=C(N)NC(=O)c1nc(Cl)c(N)nc1N [Cmpd 105, Amiloride HCl dihydrate] | ++
28 | C=C(CC)C(=O)c1ccc(OCC(=O)O)c(Cl)c1Cl [Cmpd 434, Ethacrynic Acid] | +++
29 | COc1cccc2c1C(=O)c1c(O)c3c(c(O)c1C2=O)C[C@@](O)(C(C)=O)C[C@@H]3O[C@H]1C[C@H](N)[C@H](O)[C@H](C)O1 [Cmpd 329, Daunorubicin HCl] | +++
30 | Nc1ncn([C@@H]2O[C@H](CO)[C@@H](O)[C@H]2O)c(=O)n1 [Cmpd 64, 5-Azacytidine] | +++
31 | Cc1cc(C(C#N)c2ccc(Cl)cc2)c(Cl)cc1NC(=O)c1cc(I)cc(I)c1[O-].[Na+] (centres unmarked) [Cmpd 288, Closantel Sodium] | +++
32 | CC1(C)NC(=O)N(c2ccc([N+](=O)[O-])c(C(F)(F)F)c2)C1=O [Cmpd 714, Nilutamide] | ++++
33 | Nc1ccc(S(=O)(=O)NC(=O)c2ccccc2)cc1 [Cmpd 893, Sulfabenzamide] | ++
34 | N=C(NCCCCCCNC(=N)NC(=N)Nc1ccc(Cl)cc1)NC(=N)Nc1ccc(Cl)cc1.O=C(O)[C@H](O)[C@@H](O)[C@H](O)[C@H](O)CO.O=C(O)[C@H](O)[C@@H](O)[C@H](O)[C@H](O)CO [Cmpd 248, Chlorhexidine digluconate] | +++
35 | CCOC(=O)C1=C(COCCN)NC(C)=C(C(=O)OC)C1c1ccccc1Cl (centres unmarked) [Cmpd 111, Amlodipine Besylate] | ++++
36 | CC[N+](C)(C)c1cccc(O)c1.[Cl-] [Cmpd 406, Edrophonium (chloride)] | +++
37 | O=C1Cc2cc(CCN3CCN(c4nsc5ccccc45)CC3)c(Cl)cc2N1 [Cmpd 1029, Ziprasidone HCl] | ++
38 | O=C(O)c1ccc(C(=O)O)cc1 [Cmpd 929, Terephthalic acid] | ++
39 | C=C(C)[C@@H]1CC[C@@]2(C)[C@H]1[C@H]1CCC3[C@@]4(C)CC[C@H](O)C(C)(C)[C@@H]4CC[C@@]3(C)[C@]1(C)C[C@@H]2O (some centres unmarked) [Cmpd 207, Calenduladiol] | +
40 | CC(C)OC(=O)C(C(=O)OC(C)C)=C1SC=CS1 [Cmpd 632, Malotilate] | ++
41 | CN(C)C(=O)C(CCN1CCC(O)(c2ccc(Cl)cc2)CC1)(c1ccccc1)c1ccccc1 [Cmpd 606, Loperamide HCl] | +++
42 | CC1=C(C/C=C(\C)CCC[C@H](C)CCC[C@H](C)CCCC(C)C)C(=O)c2ccccc2C1=O [Cmpd 1010, Vitamin K1] | ++

Row | Compound | Compound Myofibroblast Cytotoxicity Activity
43 | CC[C@]1(O)C[C@H]2CN(CCc3c([nH]c4ccccc34)[C@@](C(=O)OC)(c3cc4c(cc3OC)N(C=O)[C@H]3[C@@](O)(C(=O)OC)[C@H](OC(C)=O)[C@]5(CC)C=CCN6CC[C@]43[C@@H]65)C2)C1 [Cmpd 1004, Vincristine sulfate] | +++
44 | Cc1ccc(O)cc1 [Cmpd 762, p-Cresol] | ++
45 | CCOC(=O)C1=C[C@]2(CC)CCCN3CCc4c(n1c1ccccc41)[C@@H]32 [Cmpd 1006, Vinpocetine] | +++
46 | C[C@H]1[C@H](OC(=O)CCC(=O)O)O[C@@H]2O[C@@]3(C)CC[C@H]4[C@H](C)CC[C@@H]1[C@@]24OO3 [Cmpd 132, Artesunate] | +++
47 | CC(=O)NO [Cmpd 81, Acetohydroxamic Acid] | ++++
48 | CC(=O)Oc1ccccc1C(=O)Nc1ncc([N+](=O)[O-])s1 [Cmpd 718, Nitazoxanide] | +++
49 | CC1(C)C[C@@H]1C(=O)N/C(=C\CCCCSC[C@H](N)C(=O)O)C(=O)O [Cmpd 260, Cilastatin] | ++++
50 | CC(=O)NS(=O)(=O)c1ccc(N)cc1 [Cmpd 894, Sulfacetamide sodium salt hydrate] | ++
51 | OCc1cc([C@@H](O)CNCCCCCCOCCOCc2c(Cl)cccc2Cl)ccc1O [Cmpd 1001, Vilanterol trifenatate] | +++
52 | CC(=O)OC(C)C[N+](C)(C)C (centres unmarked) [Cmpd 655, Methacholine chloride] | ++
53 | CC(C)=C1C/C=C(\C)CC/C=C(\C)CC1=O [Cmpd 482, Germacrone] | +++++
54 | CCc1c(Cl)c(O)c(Cl)c(O)c1C(=O)O[C@H]1[C@H](O)[C@H](OC)[C@H](OC/C2=C\C=C\C[C@H](O)/C(C)=C/[C@H](CC)[C@@H](O[C@@H]3OC(C)(C)[C@@H](OC(=O)C(C)C)[C@H](O)[C@@H]3O)/C(C)=C/C(C)=C/C[C@@H]([C@@H](C)O)OC2=O)O[C@@H]1C [Cmpd 454, Fidaxomicin] | +++++
55 | COc1ccc(CCN2CCC(Nc3nc4ccccc4n3Cc3ccc(F)cc3)CC2)cc1 [Cmpd 136, Astemizole] | ++++
56 | Cc1cn(-c2cc(NC(=O)c3ccc(C)c(Nc4nccc(-c5cccnc5)n4)c3)cc(C(F)(F)F)c2)cn1 [Cmpd 712, Nilotinib monohydrochloride monohydrate] | +++
57 | Clc1ccc(C(c2ccccc2Cl)C(Cl)Cl)cc1 (centres unmarked) [Cmpd 681, Mitotane (Lsodren)] | +++
58 | CC1=CC[C@@H]2C[C@H]1C2(C)C [Cmpd 19, (1R)-(+)-α-Pinene] | +
59 | C#CCN(C)Cc1ccccc1 [Cmpd 757, Pargyline (hydrochloride)] | ++
60 | Cc1c(OCC(F)(F)F)ccnc1C[S@@+]([O-])c1nc2ccccc2[nH]1 [Cmpd 345, Dexlansoprazole] | ++
61 | Clc1ccc(C(Cn2ccnc2)OCc2csc3c(Cl)cccc23)c(Cl)c1 (centres unmarked) [Cmpd 860, Sertaconazole nitrate] | +++++
62 | CC(=O)Oc1cc2c(s1)CCN(C(C(=O)C1CC1)c1ccccc1F)C2.Cl (centres unmarked) [Cmpd 794, Prasugrel hydrochloride] | ++
